The values below come from paper PMC11232401, “Characterization of antimalarial activity of artemisinin-based hybrid drugs” (Antimicrobial Agents and Chemotherapy, 2024).

Molecules are shown by their SMILES. Where two headings read alike, the source gives them in different places.

What is called IC50 is the point on the concentration scale where inhibition reaches its midpoint.

For assay [1], the system named is quiescent ART-resistant parasites (F32-ART). In words: Quiescent-stage survival assay (QSA). In kind it is cell-based, Plasmodium falciparum. The note with it: for Recrudescence time in days (median; range), Quiescent parasites (QSA) DHA / DHA + drug: then DHA plus 700 nM drug 48 h (condition B); for delay of recrudescence in the QSA versus DHA alone: threshold of activity 6 days. As to the method:
The QSA was performed as previously described to determine the drug activity on quiescent ART-resistant parasites ([11]). F32-ART culture parasites were synchronized at the ring stage and adjusted to 3% parasitemia and 2% hematocrit. […] At the end of treatment, parasites from each of the three conditions were washed with RPMI-1640 medium and replaced in new wells in a drug-free culture medium with 10% human serum. Parasitemia was determined daily by thin blood smears until the cultures reached their initial parasitemia (3%), which was defined as the recrudescence day ([11]). The recrudescence capacity of parasites exposed in conditions A and B was compared to determine whether the drug was active on quiescent parasites. Condition C was designed to check that the concentration at which the drug was tested acted on proliferating parasites. If no parasite recrudescence was observed, the experiment was stopped.

Assay [2] has as its system ring stages of NF54 strain of P. falciparum. Put plainly: Exposure time dependence in drug activity (pLDH). Conditions: Plasmodium falciparum. Type of assay: cell-based. The procedure: Each well of 96-well plates was filled with 100 µL drug and 100 µL culture containing ring-stage P. falciparum (NF54 strain) parasites, which were mixed to obtain a final parasitemia of 1.0% to 1.5% and 1.0% hematocrit. Plates were incubated at 37°C in a standard gas mixture. After 3 h and 6 h, plates were centrifuged, cell pellets were washed as described above then returned to the incubator for an additional 69 h and 66 h, respectively. In parallel, the same experiment was left without the washing step, enabling continuous drug exposure throughout. Plates were processed using the pLDH method, and IC50 values were calculated as described above. Three independent experiments were performed using two technical replicates.
Figure S2: Exposure time dependence of antiparasitic activity against ring stages of CQ-sensitive strain NF54 of P. falciparum. Data associated to Figure 2B in the main text of the manuscript. Footnotes for table: ^[a] Synchronized ring-stage parasites were incubated in the presence of compounds at indicated times, drugs were removed by washing, and plates were incubated until 72 h.^[b] Parasites were incubated in the presence of compounds for 72 h. ^[a,b^] Experiments were performed in parallel (paired). Parasite viability was determined by parasite lactate dehydrogenase (pLDH) assay. Data are from three experiments performed in duplicate.^ [c] […] MFQ = mefloquine. DHA = dihydroartemisinin; SEM = standard error of the mean; N.S. = not statistically significant.

A further assay has as its system F32-ART parasites. In words: In vitro recrudescence assay. In kind it is cell-based, Plasmodium falciparum. The note with it: 700 nM, 48 h exposure; for Recrudescence time in days (median; range), Recrudescence assay F32-ART: monitored up to 30 days. As to the method:
(§1) Parasites were washed with RPMI-1640 medium before being placed in drug-free culture conditions with 10% human serum. Parasitemia was determined daily by Giemsa-staining of blood smears until the cultures reached their initial parasitemia, defined as the recrudescence day. […] Two independent experiments were performed ([10]).

The test system of a further assay is F32-TEM parasites. Put plainly: In vitro recrudescence assay. Type of assay: cell-based, Plasmodium falciparum. The note with it: 700 nM, 48 h exposure, monitored up to 30 days. The procedure:
as §1

Assay [3] deals with NF54 strain of P. falciparum. In words: Ring-stage-specific drug activity (pLDH). Type of assay: cell-based. Conditions: Plasmodium falciparum, median ± SEM. The procedure: Each compound was dissolved in dimethyl sulfoxide (DMSO) and diluted in RPMI-1640 medium into seven different concentrations, which were tested against CQ-susceptible strains (NF54 or D10) or a CQ-resistant strain (W2). Each well of 96-well plates was filled with 100 µL drug and 100 µL parasitized RBC (asynchronous parasite culture), which were mixed to obtain a final parasitemia of 1.0% to 1.5% and 1.0% hematocrit. Plates were incubated for 72 h at 37°C in a standard gas mixture; then, parasite growth was determined by measuring the activity of the parasite lactate dehydrogenase (pLDH) ([38]). Briefly, at the end of incubation, the cultures were carefully resuspended, and 20 µL aliquots were removed and added to 100 µL Malstat reagent in a 96-well microplate. The Malstat reagent is made of 0.125% TritonX-100, 130 mM L-lactate, 30 mM Tris buffer, and 0.62 µM 3-acetylpyridine adenine dinucleotide. After that, 20 µL 1.9 µM nitro blue tetrazolium (NBT) and 0.24 µM phenazine ethyl sulfate were added to the plate. NBT was reduced to blueformazan and spectrophotometrically read at OD 650 nm using a Synergy 4 microplate reader (BioTek, Santa Clara, USA). […] IC50 values were expressed as means of two to three independent experiments, with each drug concentration in duplicate.
The NF54 strain of P. falciparum was employed to test the drugs’ activity against ring stages and asynchronous parasite culture (all stages). The ring stages were obtained by synchronization with D-Sorbitol using a standard method ([39]). Each well of 96-well plates was filled with 100 µL each drug and 100 µL culture containing ring-stage or asynchronous parasites, which were mixed to obtain a final parasitemia of 1.0% to 1.5% and 1.0% hematocrit. […] Plates were processed using the pLDH method, and IC50 values were calculated as described above. At least two to three independent experiments were performed, using two technical replicates.
^[a] Synchronized ring-stage parasites were incubated in the presence of compounds for 6 h, drugs were removed by washing, and plates were incubated for an additional 66 h. ^[b] Asynchronous parasites were incubated in the presence of compounds for 6 h, drugs were removed by washing, and plates were incubated for an additional 66 h. ^[c] Asynchronous parasites were incubated in the presence of compounds for 72 h. ^[a,b^] Experiments were performed in parallel. ^[d] […] Parasite viability was determined by parasite lactate dehydrogenase. Data are from three experiments performed in duplicate. MFQ = mefloquine; DHA = dihydroartemisinin; SEM = standard error of the mean.

The test system of assay [4] is F32-TEM (sensitive) early ring-stage parasites. In words: Ring-stage survival assay (RSA0-3h). In kind it is cell-based, Plasmodium falciparum. The note with it: 700 nM, 6 h pulse, 66 h growth. The procedure: Early ring-stage parasites (0–3 h post-invasion) of F32-ART and F32-TEM strains highly synchronized by Percoll-Sorbitol treatment were exposed to 700 nM of the drugs or 0.1% DMSO (control) for 6 h. Each drug was tested in duplicate. Parasite pellets were then washed in RPMI-1640 medium before being placed in drug-free culture conditions with 10% human serum and incubated for 66 h ([44]). Survival rates were assessed microscopically by two independent microscopists by counting the parasites in 10,000 RBCs. Three independent experiments were performed.

Setting [5] is: NF54, 6 h drug pulse, wash, incubated until 72 h, median ± SEM, read-out: IC50, 6 h + 66 h.
[6] abbreviates: NF54, 72 h continuous drug, median ± SEM, read-out: IC50, 72 h.
Setting [7] is: NF54, read-out: IC50, 3 h + 69 h, 3 h drug pulse, wash, incubated until 72 h, median ± SEM.
The mark [8] stands for this setting: asynchronous parasites, 6 h drug, wash, additional 66 h, read-out: IC50, Asynchronous.
The mark [9] stands for this setting: asynchronous parasites, 72 h continuous drug, read-out: IC50, 72 h.
[10] abbreviates: synchronized ring stages, 6 h drug, wash, additional 66 h, read-out: IC50, Ring stages.

For `COCCOCCOCCOCCn1c(-c2ccc(-n3cc(-c4ccc(OC5OC6OC7(C)CCC8C(C)CCC(C5C)C68OO7)cc4)nn3)cc2)nc2ccccc21` (stereo not drawn) [Hybrid 1], in assay [1] (700 nM DHA 6 h), the “Recrudescence time in days (median; range), Quiescent parasites (QSA) DHA / DHA + drug” value is 11.5 (11–12) days. The “delay of recrudescence in the QSA versus DHA alone” value in assay [1] came out at 0.5 days. The IC50 worked out at 1.5 ± 0.3 nM in assay [2] (setting [5]); 1.5 ± 0.1 nM in assay [2] (setting [6]); 220 ± 80 nM in assay [2] (setting [7]); 3.5 ± 0.3 nM in assay [3] (setting [8]); 3 ± 0.3 nM in assay [3] (setting [9]); 1.5 ± 0.3 nM in assay [3] (setting [10]). Further, in the assay on F32-ART parasites, the “Recrudescence time in days (median; range), Recrudescence assay F32-ART” value (“Recrudescence time … Recrudescence assay F32-ART” below) is 11.5 (10– 13) days. Moreover, the “Recrudescence time in days (median; range), Recrudescence assay F32-TEM” value (from here on “Recrudescence time … Recrudescence assay F32-TEM”) in the assay on F32-TEM parasites is on record as > 20 (21–>30) days. Further, the “Survival rate (%) from the RSA0-3h, F32-TEM (sensitive)” value (shortened to “Survival rate (%) from the RSA0-3h”) in assay [4] came to 0.05 ± 0.03%.

Turning to `C[C@H]1[C@@H](O)O[C@@H]2O[C@@]3(C)CC[C@H]4[C@H](C)CC[C@@H]1[C@@]24OO3` [DHA, dihydroartemisinin, reference compound], the “Recrudescence time in days (median; range), Quiescent parasites (QSA) DHA / DHA” value in assay [1] (700 nM DHA 6 h, then DHA alone 48 h (condition A)) is listed as 8.5 (8–9) days. Further, the IC50 in assay [2] (setting [5]) was found to be 5 ± 0.5 nM; in assay [2] (setting [6]) it was 1.9 ± 0.2 nM; in assay [2] (setting [7]), 100 ± 25 nM; in assay [3] (setting [8]), 4.6 ± 0.9 nM; in assay [3] (setting [9]), 2.1 ± 0.6 nM; in assay [3] (setting [10]) it was 5 ± 0.5 nM. The “delay in recrudescence between F32-ART and F32-TEM” value with F32-ART parasites turned out to be 8 days. Also, in the assay on F32-ART parasites, the “Recrudescence time … Recrudescence assay F32-ART” value was 7.5 (7–8) days. Also, the “Recrudescence time … Recrudescence assay F32-TEM” value with F32-TEM parasites is listed as 16.5 (15–18) days. Besides, the “Survival rate (%) from the RSA0-3h” value in assay [4] is given as 0.04 ± 0.03%.

For the compound `CC1CCC2C(C)C(OC(=O)CCC(=O)OCCNc3ccnc4cc(Cl)ccc34)OC3OC4(C)CCC1C32OO4` (stereo not drawn) [Hybrid 2], the “Recrudescence time in days (median; range), Quiescent parasites (QSA) DHA / DHA + drug” value in assay [1] (700 nM DHA 6 h) was 9 (8–10) days. Besides, the “delay of recrudescence in the QSA versus DHA alone” value in assay [1] is on record as 3 days. The IC50 in assay [2] (setting [5]) was found to be 9 ± 1.5 nM; in assay [2] (setting [6]), 3.8 ± 0.4 nM; in assay [2] (setting [7]) it was 75 ± 18 nM; in assay [3] (setting [8]) it was 19.1 ± 1.8 nM; in assay [3] (setting [9]), 8.1 ± 1 nM; in assay [3] (setting [10]), 9 ± 1.5 nM. Moreover, in the assay with F32-ART parasites, the “Recrudescence time … Recrudescence assay F32-ART” value is listed as 7.5 (7–8) days. Further, in the assay with F32-TEM parasites, the “Recrudescence time … Recrudescence assay F32-TEM” value is recorded as 16 (14–18) days. Further, in assay [4], the “Survival rate (%) from the RSA0-3h” value amounted to 0.04 ± 0.02%.
